Measurements taken from US12569502B2, “Use of bile acids and derivatives thereof in preparation of GPR39 agonist” (PEKING UNIVERSITY, priority 2019, dated 2026).
Where a chain is given by its changes, count along the chain named.

Columns and labels:
Assay in all cases: Calcium imaging of GPR39 activation site mutant, transiently transfected cells
Assay type in all cases: cell-based
Conditions in all cases: FIG. 7
GPR39 mutant E116A = molecular target: T1, GPR39 mutant E116A (Mus musculus, UniProt Q5U431, E116A)
T1 construct: 3HA (N); P2A-mCherry (C); expressed in transfected cells; host or cells: HEK293T, transient (Lipofectamine 3000)
T1 sequence (Q5U431 1-456 E116A): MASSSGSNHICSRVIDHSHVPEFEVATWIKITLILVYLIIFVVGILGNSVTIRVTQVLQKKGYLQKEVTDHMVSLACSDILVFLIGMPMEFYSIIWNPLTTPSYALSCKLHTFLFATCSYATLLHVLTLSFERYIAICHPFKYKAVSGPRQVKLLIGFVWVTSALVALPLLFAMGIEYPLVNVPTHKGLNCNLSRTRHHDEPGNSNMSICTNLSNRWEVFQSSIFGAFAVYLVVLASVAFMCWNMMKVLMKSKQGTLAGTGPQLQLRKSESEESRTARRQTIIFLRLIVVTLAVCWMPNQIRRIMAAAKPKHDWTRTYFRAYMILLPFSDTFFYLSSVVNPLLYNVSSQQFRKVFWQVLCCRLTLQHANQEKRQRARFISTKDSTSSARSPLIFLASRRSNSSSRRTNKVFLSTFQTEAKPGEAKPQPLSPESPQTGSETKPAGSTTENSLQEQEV
Description: (§1) GPR39 mutants E90A, F115A, E116A and D330A were firstly constructed according to the method of Example 5.

GPR39 mutant E90A = molecular target: T2, GPR39 mutant E90A (Mus musculus, UniProt Q5U431, E90A)
T2 construct: 3HA (N); P2A-mCherry (C); expressed in transfected cells; host or cells: HEK293T, transient (Lipofectamine 3000)
T2 sequence (Q5U431 1-456 E90A): T1 sequence (Q5U431 1-456 E116A) with E90A, A116E
Description: as §1

GPR39 mutant F115A = molecular target: T3, GPR39 mutant F115A (Mus musculus, UniProt Q5U431, F115A)
T3 construct: 3HA (N); P2A-mCherry (C); expressed in transfected cells; host or cells: HEK293T, transient (Lipofectamine 3000)
T3 sequence (Q5U431 1-456 F115A): T1 sequence (Q5U431 1-456 E116A) with F115A, A116E
Description: as §1

C[C@H](CCC(=O)O)[C@H]1CC[C@H]2[C@@H]3CC[C@@H]4C[C@H](OS(=O)(=O)O)CC[C@]4(C)[C@H]3CC[C@]12C [LCAS]
activated: activation of mutant E116A (calcium imaging) (GPR39 mutant E116A) | activation of mutant E90A (calcium imaging) (GPR39 mutant E90A) | activation of mutant F115A (calcium imaging) (GPR39 mutant F115A)
